Consider two compounds from patent publication US20080045564A1 (priority 2006, published 2008).

The structures appear in SMILES notation.

For one data set, the system named is human CYP1A1. The settings on record: due to increased mRNA expression levels; Bapiro et al.; cited from earlier work.

With `CCC1(c2ccccc2)C(=O)NC(=O)NC1=O` [Phenobarbital], the “induction of CYP2B6 by reference inducer” value in the data set on CYP2B6 (1 mM Phenobarbital, each hepatocyte donor) is “statistically significant amount of induction”.

For `C=C[C@H]1C[N@@]2CC[C@H]1C[C@H]2[C@H](O)c1ccnc2ccc(OC)cc12` [quinine, cinchonan-9-ol, 6′-methoxy-, (8a,9R)-], in the data set with CYP2B6 (hepatocytes), the “induction of CYP2B6 activity (statistical significance, summary over three donors)” value was “an inducer”. The “induction of human CYP1A1 activity” value in the data set on human CYP1A1 is recorded as “induced”.
